Experimental data taken from patent publication US20220073857A1, “THREE-DIMENSIONAL SUBSTRATE FOR MICROBIAL CULTURES” (POLITECNICO DI MILANO, priority 2018, published 2022).

Tests used:
[1] = Mucous barrier model: ability of molecules to cross a barrier (permeable support, “SUBSTRATE” or Mus^3SUB); assay type: in vitro ADME; details: interactive barrier, mucin in the “SUBSTRATE” (Mus^3SUB); FIG. 4
Description: “SUBSTRATE” and Mus^3SUB with the features referred to in Example 2 were tested for the ability thereof to mimic the mucous barrier.
The charts in FIG. 4 show the ability of said molecules to cross a barrier, where the barrier consists of a permeable support, “SUBSTRATE” or Mus^3SUB.

[2] = cited from earlier work

transition of the drug across the barrier [1] | Compound | pKa [2] | log D7.4 ([2]; pH 7.4)
very quick | CC1=C(C(=O)O)N2C(=O)[C@@H](NC(=O)[C@H](N)c3ccccc3)[C@H]2SC1 [Cefalexin] | – | –
slowed | COc1cccc2c1C(=O)c1c(O)c3c(c(O)c1C2=O)C[C@@](O)(C(=O)CO)C[C@@H]3O[C@H]1C[C@H](N)[C@@H](O)[C@H](C)O1 [Epirubicin] | 8.01 | 0.03
